# Biological target: T1, Bile acid receptor (Homo sapiens, UniProt Q96RI1)
# T1 sequence (Q96RI1 whole entry): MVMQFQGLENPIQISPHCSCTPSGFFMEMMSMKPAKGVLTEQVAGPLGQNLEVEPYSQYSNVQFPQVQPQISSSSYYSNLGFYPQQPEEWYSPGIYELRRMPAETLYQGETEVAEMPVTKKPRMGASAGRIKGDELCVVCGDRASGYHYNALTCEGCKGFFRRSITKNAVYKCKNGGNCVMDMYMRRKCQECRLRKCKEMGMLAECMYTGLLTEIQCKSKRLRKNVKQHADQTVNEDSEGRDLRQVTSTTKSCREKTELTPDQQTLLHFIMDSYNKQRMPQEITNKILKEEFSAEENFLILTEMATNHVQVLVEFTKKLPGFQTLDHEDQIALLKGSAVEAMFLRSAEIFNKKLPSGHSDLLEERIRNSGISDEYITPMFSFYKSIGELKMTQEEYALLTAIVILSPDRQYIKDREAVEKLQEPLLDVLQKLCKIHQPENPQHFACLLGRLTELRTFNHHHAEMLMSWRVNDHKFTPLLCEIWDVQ
# Assay: HTRF Coactivator Recruitment Assay
# Details: pH 7; 4 °C
# Experimental: To each well of a 96-well assay plate, assay buffer was added containing purified GST-FXR, Eu-labeled anti-GST antibody (Perkin-Elmer), streptavidin-XL665 (Packard Instruments), biotin-tagged SRC-1 fragment. The binding reaction was initiated by the addition of compound.
row,EC50 [nM],Structure (SMILES)
1,16.9,C[C@]12CCC(C(=O)O)=CC1=CCC1C2CC[C@@]2(C)C1CC[C@@H]2C(=O)c1ccc(O)cc1 (some centres not stated) [MFA-1]
2,509,C[C@]12CCC(C(=O)O)=CC1=CCC1C2CC[C@@]2(C)C1CC[C@@H]2C(=O)c1ccccc1 (some centres not stated) [MFA-2]

# From BindingDB's records for doi:10.1073/pnas.0710981105 (Merck Research Laboratories, 2008)
